Measurements from patent US20250361233A1, “Compounds For Activating Serotonin Receptor” (PSYLO PTY LTD, priority 2023, published 2025).

Experiments:
[1] = tested on: C57BL/6J mice; assay: Biotelemetry and head-twitch response (HTR) experiments; format: in vivo, mice (C57BL/6J males); conditions: male C57BL/6 mice, SC, several doses (0.03 to 30 mg/kg)
From the text: Mice (C57BL/6J males) were purchased from the Jackson Laboratory (Bar Harbor, ME, USA) at 5-6 weeks of age and allowed at least 1-2 weeks to acclimate to the NIDA, Intramural Research Program (IRP), animal research facility in Baltimore, MD, USA. The animal facility is fully accredited by the Association for the Assessment and Accreditation of Laboratory Animal Care, and all procedures were approved by the NIDA IRP Animal Care and Use Committee. Mice were initially group housed 3-5 per cage during acclimation and housed in a 12 h light-dark cycle throughout the study, with lights on at 0700 h. Food and water were available ad libitum except during testing. Cohorts of 20-24 mice were used for each test drug. The mice were subjected to experimental testing once every 1-2 weeks for 2-3 months to complete dose-effect curves and antagonist experiments. A minimum of 7 days between treatments was utilized to avoid any tolerance to effects of repeated drug administration. All drug doses represent the weight of the salt dissolved in 0.9% saline vehicle. Mice were tested first in dose-response studies to assess the effects of each compound at doses from 0.03 to 30 mg/kg s.c. and were subsequently tested in antagonist reversal studies utilizing pretreatment with M100907 and WAY100635. All experiments were conducted from 0900 to 1700 local time during the light phase, as sensitivity of rodents to other tryptamine psychedelics is diurnal, with maximal HTR observed in the middle of the light phase. […]
Subcutaneous Temperature Transponder Implants. […] Temperature was determined noninvasively using a handheld receiver that is sensitive to signals emitted from the implanted transponders.
Prior to each experiment, mouse body weight and temperature were recorded. […] In dose-response studies, after a brief 5 min acclimation, mouse body temperature was recorded for baseline measurement, mice received s.c. injection of test substance or vehicle, and animals were returned to the testing arena for 30 min. During the session, locomotor activity was monitored via photobeam tracking of movements in the horizontal plane to yield distance traveled in centimeter. HTR was monitored by the analysis of GoPro Hero Black 7 video recordings (120 frames per see and 960p resolution) using a commercially available software package from Clever Sys Inc. (Reston, VA, USA).82 Post-treatment body temperature values were also recorded, and temperature data are represented as change from pretreatment baseline.
In antagonist reversal experiments, mice received a s.c. injection of either receptor antagonists or vehicle and were returned to the testing chamber for 30 min. During this period, locomotor activity was monitored to examine the potential effects of antagonist treatment on general behavior or movement. […]

[2] = tested on: Male ICR mice; assay: Acute restraint stress - tail suspension test (TST); format: in vivo; conditions: ICR mice after 5 h acute restraint stress, IP; P-3 3, 10 mg/kg; P-8 3, 10, 30 mg/kg; vs vehicle
Protocol: Male ICR mice (23±3 g) were purchased from BioLASCO (Taipei, Taiwan) at 4-5 weeks of age and allowed 5-7 days to acclimate to the animal research facility at Pharmacology Discovery Services (Taipei, Taiwan). Mice were housed in groups of 10 in a large cage (47×25×15 cm) on a 12-hour light cycle (lights on: 0700) and provided ad libitum food and water except during acute restraint stress and tail-suspension testing. Temperature was maintained at 20-24° C., and all rooms (colony and testing rooms) had similar lighting intensity. All aspects of this work including housing, experimentation, and animal disposal were performed in accordance with the “Guide for the Care and Use of Laboratory Animals: Eighth Edition” (The National Academies Press, Washington, DC, 2011) in a facility accredited by the Association for Assessment and Accreditation of Laboratory Animal Care. […]
Tail Suspension Test (TST) Procedure: Mice were individually suspended on the edge of a shelf, 58 cm above a tabletop, using adhesive tape placed approximately 1 cm from the tip of the tail, for a total duration of 7 minutes. Using a stopwatch, the experimenters blinded to treatment groups recorded the duration of immobility (defined as hanging passively and motionless) during the 5 minutes spanning from 2-7 minutes. The data from 0-2 minutes was not recorded. […]

COc1cnc2[nH]cc(CCN(C)C)c2c1 [Compound P-3, 2-(5-methoxy-1H-pyrrolo[2,3-b]pyridin-3-yl)-N,N-dimethylethan-1-amine]
Head-twitch response (HTR) [1]: not promoting increased head-twitch response
Tolerability (temperature, locomotor activity, HTR; FIGS. 2-5) [1]: well-tolerated
Immobility time in tail suspension test (FIG. 6) [2]: decrease the immobility time of mice
